Patent publication US20050209157A1, “Short bioactive peptides and methods for their use” (priority 2001, published 2005)
Converted amounts (≈) assume the structure as drawn. Like-named read-outs stand apart in the source and are kept apart here. No end group written: not given here.

Legend:
[1] = tested on: Pseudomonas aeruginosa H187; type: cell-based; settings: in µg/mL
[2] = tested on: Candida glabrata ATCC15126; assay: Antimicrobial assays II, NCCLS broth microdilution MIC; type: cell-based; settings: in µg/mL
E. coli UB1005 = type: cell-based, Escherichia coli; settings: for E. coli UB1005 MIC: mean of three, 16 to 20 hours at 35° C., in µg/mL
S. typhimurium 14028S = type: cell-based, Salmonella typhimurium; settings: for S. typhimurium 14028S MIC: mean of three, 16 to 20 hours at 35° C., in µg/mL
P. aeruginosa H374 [3] = type: cell-based, Pseudomonas aeruginosa; settings: for P. aeruginosa H374 MIC: mean of three, 16 to 20 hours at 35° C.
BMKC = assay: Anti-cancer assay, MTT, LD50; type: cell-based; settings: BMKC cloned melanoma line, 24 hours with peptide
Source text: (§1) Numbers are LD50 values (μg/mL).

H1299 = assay: Anti-cancer assay, MTT, LD50; type: cell-based; settings: 24 hours with peptide, lung large cell carcinoma
Source text: as §1

HeLaS3 = assay: Anti-cancer assay, MTT, LD50; type: cell-based; settings: 24 hours with peptide, cervical carcinoma
Source text: as §1

MCF7 = assay: Anti-cancer assay, MTT, LD50; type: cell-based; settings: MCF7 breast adenocarcinoma line, MTT, 24 hours with peptide
Source text: as §1

PC3 = assay: Anti-cancer assay, MTT, LD50; type: cell-based; settings: 24 hours with peptide, prostate adenocarcinoma
Source text: as §1

SW480 = assay: Anti-cancer assay, MTT, LD50; type: cell-based; settings: SW480 colon adenocarcinoma line, 24 hours with peptide
Source text: as §1

[4] = tested on: human red blood cells (RBC); assay: in vitro; type: cell-based; settings: hemolytic assay, concentration at 50% hemolysis, 1 hour at 37° C.
P. aeruginosa H374 [5] = type: cell-based, Pseudomonas aeruginosa; settings: for MIC Cm-comb.: MIC of chloramphenicol with peptide at ¼ MIC; for MIC Nal-comb.: MIC of nalidixic acid with peptide at ¼ MIC; for FIC Index: 0.5 or less = synergy
Description: (§2) The synergistic effects of the inventive peptides with either chloramphenicol or nalidixic acid against efflux mutants of Pseudomonas aeruginosa were investigated. The MIC values were determined for either nalidixic acid or chloramphenicol alone as baselines. Peptides were added at their ¼ MIC concentration, and the concentration of either nalidixic acid or chloramphenicol to arrive at the MIC was determined. […] The fractional inhibitory concentration (FIC) index was used to determine synergy between peptides and antibiotics. Two-fold serial dilutions of antibiotic were tested in the presence of a constant amount of peptide, equal to one quarter of peptide MIC. The FIC index was determined as follows: FIC=0.25+MICantibiotic in combination/MICantibiotic alone. An FIC index of 0.5 or less is considered as synergy.

P. aeruginosa H774 = type: cell-based, Pseudomonas aeruginosa; settings: P. aeruginosa H744; nalidixic acid + peptide at ¼ MIC; 0.5 or less = synergy
Description: as §2

P. aeruginosa = type: cell-based, Pseudomonas aeruginosa; settings: P. aeruginosa H744; MIC of nalidixic acid with peptide at ¼ MIC
Description: as §2

WI38 = settings: MTT, 24 hours with peptide; for WI38 LD50: normal fibroblast line
in vitro = settings: human, WI38 normal lung fibroblast cells, LD50 WI38, WI38 normal lung fibroblast line, MTT, 24 hours with peptide
[6] = tested on: Pseudomonas aeruginosa ATCC 9027; assay: Antimicrobial assay I, MIC by OD measurement; type: cell-based; settings: 37° C. for 24 hours, absorbance 620 nm
[7] = tested on: Staphylococcus aureus ATCC 6538; assay: Antimicrobial assay I, MIC by OD measurement; type: cell-based; settings: 37° C. for 24 hours, absorbance 620 nm
[8] = tested on: yeast (Saccharomyces cerevisiae); assay: Antimicrobial assay I, yeast assay in RPMI 1640; type: cell-based; settings: RPMI 1640 media
S. aureus (MRSA) = type: cell-based, Staphylococcus aureus; settings: Table 13, strain SAP0017; in µg/mL
S. epidermidis C621 = type: cell-based, Staphylococcus epidermidis; settings: Table 13; in µg/mL
Candida albicans 105 = type: cell-based; settings: Table 13; in µg/mL
[9] = chloramphenicol + peptide at ¼ MIC
[10] = nalidixic acid + peptide at ¼ MIC, FIC=0.25+MIC comb/MIC alone

Compound	MIC P. aeruginosa H187 ([1]; Table 8)	MIC C. glabrata ATCC15126 ([2]; Table 8)	E. coli UB1005 MIC (E. coli UB1005)	S. typhimurium 14028S MIC (S. typhimurium 14028S)	P. aeruginosa H374 MIC (P. aeruginosa H374 [3]) [µg/mL]	LD50 BMKC (BMKC)	H1299 LD50 (H1299)	HeLaS3 LD50 (HeLaS3)	LD50 MCF7 (MCF7)	PC3 LD50 (PC3)	LD50 SW480 (SW480)	LD50 [4]	MIC Cm-comb. (P. aeruginosa H374 [5]) [µg/mL]	MIC Nal-comb. (P. aeruginosa H374 [5]) [µg/mL]	FIC Index (P. aeruginosa H374 [5]; [9])	FIC Index (P. aeruginosa H374 [5]; [10])	FIC Index (P. aeruginosa H774)	MIC Nal-comb. (P. aeruginosa) [µg/mL]	WI38 LD50 (WI38)	CC50 at 24 h (in vitro) [µg/mL]	also measured
FAKKLAKLAKKLAKAL-NH2 [P109 (73)]	64	128																			
LPKWKVFKKIEKVGRNIRNGIVKAGPAIAVLGEAKALG-NH2 [P306, reference compound]			4	4	8	170 µg/mL	120 µg/mL	250 µg/mL	50 µg/mL	370 µg/mL	240 µg/mL	> (> indicates greater than 1000)	8	5000	0.75	1.25	0.75	312	320 µg/mL	320	
FAKKLLAKALKL-NH2 [P110 (74)]	64	128																			
FAKKLAKLAKKLAKAL-NH2 [P109]			16	32	8	> (> indicates greater than 1000)	> (> indicates greater than 1000)	> (> indicates greater than 1000)	> (> indicates greater than 1000)	> (> indicates greater than 1000)	> (> indicates greater than 1000)	> (> indicates greater than 1000)	16	2500	1.25	0.75	1.25	624	> (> indicates greater than 1000)		paerug9027 (MIC) [6]: 200 µg/mL; staph6538 (MIC) [7]: > (> indicates greater than 200 μg/mL); yeast (MIC or MFC) [8]: 200 µg/mL; LD50 WI38 (WI38; WI38 normal lung fibroblast line): > (> indicates greater than 1000)
CC(C)C[C@H](NC(=O)[C@H](C)NC(=O)[C@H](CCCCN)NC(=O)[C@H](CC(C)C)NC(=O)[C@H](C)NC(=O)[C@H](CC(C)C)NC(=O)[C@H](C)NC(=O)[C@H](CC(C)C)NC(=O)[C@H](CCCCN)NC(=O)[C@H](C)NC(=O)[C@H](CC(C)C)NC(=O)[C@H](CCCCN)NC(=O)[C@H](CCCCN)NC(=O)[C@H](C)NC(=O)[C@H](CC(C)C)NC(=O)[C@H](CCCCN)NC(=O)[C@H](CCCCN)NC(=O)[C@H](CC(C)C)NC(=O)[C@H](CCCCN)NC(=O)[C@H](CCCCN)NC(=O)[C@H](C)NC(=O)[C@H](CC(C)C)NC(=O)[C@H](CCCCN)NC(=O)[C@H](CCCCN)NC(=O)[C@H](C)NC(=O)[C@@H](N)Cc1ccccc1)C(=O)N[C@@H](C)C(=O)N[C@@H](CC(C)C)C(=O)N[C@@H](CCCCN)C(=O)N[C@@H](C)C(=O)O [P100 (163)]	32	>128																			
FAKKLAKKLKKLAKKLAKLAKKL-NH2 [P307, reference compound]						83 µg/mL	160 µg/mL	100 µg/mL	38 µg/mL	66 µg/mL	73 µg/mL	> (> indicates greater than 1000)	2	625	0.375	0.375	0.5	156	75 µg/mL	75	
FAKKFAKKFKKFAKKFAKFAFAF-NH2 [P301 (147)]																					MIC S. aureus SAP0017 (S. aureus (MRSA)): 8; MIC S. epidermis C621 (S. epidermidis C621): 4; MIC E. coli UB1005 (E. coli UB1005; Table 12): 8 µg/mL; MIC S. typhimurium 14028S (S. typhimurium 14028S; Table 12): 8 µg/mL; MIC P. aeruginosa H374 (P. aeruginosa H374 [3]; Table 12, in µg/mL): 4; MIC P. aeruginosa H187 ([1]; Table 12): 8; MIC C. albicans 105 (Candida albicans 105): 32; MIC C. glabrata ATCC15126 ([2]; Table 13): 32
FAKKLLAKALKL-NH2 [P110]			16	32	8	400 µg/mL	95 µg/mL	540 µg/mL	180 µg/mL	> (> indicates greater than 1000)	325 µg/mL	> (> indicates greater than 1000)	16	2500	1.25	0.75	1.25	624	45 µg/mL	45	paerug9027 (MIC) [6]: 200 µg/mL; staph6538 (MIC) [7]: > (> indicates greater than 200 μg/mL); yeast (MIC or MFC) [8]: 200 µg/mL
CC(C)C[C@H](NC(=O)[C@H](C)NC(=O)[C@H](CCCCN)NC(=O)[C@H](CC(C)C)NC(=O)[C@H](C)NC(=O)[C@H](CC(C)C)NC(=O)[C@H](C)NC(=O)[C@H](CC(C)C)NC(=O)[C@H](CCCCN)NC(=O)[C@H](C)NC(=O)[C@H](CC(C)C)NC(=O)[C@H](CCCCN)NC(=O)[C@H](CCCCN)NC(=O)[C@H](C)NC(=O)[C@H](CC(C)C)NC(=O)[C@H](CCCCN)NC(=O)[C@H](CCCCN)NC(=O)[C@H](CC(C)C)NC(=O)[C@H](CCCCN)NC(=O)[C@H](CCCCN)NC(=O)[C@H](C)NC(=O)[C@H](CC(C)C)NC(=O)[C@H](CCCCN)NC(=O)[C@H](CCCCN)NC(=O)[C@H](C)NC(=O)[C@@H](N)Cc1ccccc1)C(=O)N[C@@H](C)C(=O)N[C@@H](CC(C)C)C(=O)N[C@@H](CCCCN)C(=O)N[C@@H](C)C(=O)O [P100, reference compound]			0.5	4	8	120 µg/mL			175 µg/mL		82 µg/mL	> (> indicates greater than 1000)	16	2500	1.25	0.75	1.25	624		95 (≈ 29.4 µM)	
FAKKLAKKLKKLAKLALAL-OH [P29 (14)]	32	128																			
FAKKLAKLAKKALAL-NH2 [P39, FAKKLAKLAKKALAL-NH2]			4	16	16	510 µg/mL	420 µg/mL	620 µg/mL	130 µg/mL	310 µg/mL	435 µg/mL	> (> indicates greater than 1000)	8	1250	0.75	0.5	1.25	624	300 µg/mL	300	paerug9027 (MIC) [6]: 25 µg/mL; staph6538 (MIC) [7]: 100 µg/mL; yeast (MIC or MFC) [8]: 100 µg/mL
